Measurements: patent publication US20130065792A1, “INDUCIBLE EXPRESSION OF SGLT5, METHODS AND KITS USING THE SAME” (BOEHRINGER INGELHEIM INTERNATIONAL GMBH, priority 2011, published 2013)

How the values were obtained:
Format in all cases: cell-based
SGLT5 [1] = target: T1, SGLT5 (Homo sapiens, UniProt A0PJK1); experiment: Time dependent specific uptake of [14C]-monosaccharides by T-Rex 293-hSGLT5 cells (FIG. 3); details: 1 mM monosaccharide, 5-60 min, tetracycline induced T-Rex 293-hSGLT5 cells
T1 construct: expressed in transfected cells; host or cells: T-Rex 293 cells (Invitrogen), stably transfected with pT-Rex-Dest30-hSGLT5; expression induced with tetracycline; deposited clone DSM ACC3096
T1 sequence (A0PJK1 1-596): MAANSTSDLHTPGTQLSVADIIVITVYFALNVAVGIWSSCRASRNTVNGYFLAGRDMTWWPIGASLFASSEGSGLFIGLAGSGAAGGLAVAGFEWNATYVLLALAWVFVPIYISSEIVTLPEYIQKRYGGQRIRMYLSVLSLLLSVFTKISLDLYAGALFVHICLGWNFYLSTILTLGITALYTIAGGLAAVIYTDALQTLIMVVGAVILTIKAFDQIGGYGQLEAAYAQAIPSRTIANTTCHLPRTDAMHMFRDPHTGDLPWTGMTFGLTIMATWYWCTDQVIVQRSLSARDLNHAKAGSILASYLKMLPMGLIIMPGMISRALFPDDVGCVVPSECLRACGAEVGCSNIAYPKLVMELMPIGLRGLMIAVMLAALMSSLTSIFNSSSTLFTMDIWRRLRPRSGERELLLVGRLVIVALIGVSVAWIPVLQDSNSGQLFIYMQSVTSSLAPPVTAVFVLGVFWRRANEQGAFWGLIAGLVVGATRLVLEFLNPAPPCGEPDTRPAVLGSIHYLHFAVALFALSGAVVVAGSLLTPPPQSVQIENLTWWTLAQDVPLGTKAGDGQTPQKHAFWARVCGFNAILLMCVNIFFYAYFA
Protocol: [^14C]-saccharide uptake experiments: 30000 cells per well were seeded in white poly-D-lysine-coated 96-well plates and incubated over night. The expression of hSGLT5 was induced 24 h before the start of uptake experiments by the addition of 1 μg/ml tetracycline to the cells. For the assay, cells were washed twice with 250 μl pre-treatment buffer [140 mM cholinchloride in basal buffer (10 mM HEPES; 5.4 mM KCl; 2.8 mM CaCl2*2 H2O; 1.2 mM MgSO4*7 H2O; 0.1% BSA, pH 7.4) and incubated in 200 μl pre-treatment buffer for 25 min at 37° C. Pre-treatment buffer was removed and 200 μl uptake buffer was added to the cells (140 mM NaCl in basal buffer containing 1 mM cold monosaccharide [either glucose, fructose, mannose, galactose or alphamethyl glucopyranoside (AMG), respectively]+0,6 μCi [^14C]-labelled monosaccharide [either glucose, fructose, mannose, galactose or alpha-methyl glucopyranoside (AMG), respectively] (Hartmann Analytics, Mannheim, Germany) and 10 μM Cytochalasin B. After incubation for 5, 10, 30 and 60 minutes at 37° C., the cells were washed three times with 300 μl PBS (Cambrex, Verviers, Belgium) and then lysed in 0.1 N NaOH with intermittent shaking for 5 min. The lysate was mixed with 200 μl MikroScint 40 Scintillator, shaken for 15 min and counted for radioactivity in the TopCount NXT (Canberra Packard, Schwadorf, Austria). Specific sugar uptake was determined by subtracting non-specific uptake of each sugar (in the presence of choline chloride) from total uptake of the same sugar (in the presence of sodium chloride).
Furthermore, a protocol was established to measure the specific uptake of monosaccharides e.g. mannose, fructose, glucose, AMG and galactose by hSGLT5, It could be shown that the transporter takes up mannose and fructose with high affinity and hardly transports glucose, AMG and galactose (FIG. 3). […] Specific uptake was calculated by subtracting the respective monosaccharide uptake in the presence of choline chloride from the total uptake of the same monosaccharide in the presence of sodium chloride.

SGLT5 [2] = target: T1, SGLT5; experiment: FLIPR membrane potential assay in HEK/293 cells constitutively expressing SGLT5 (Reference Example); details: constitutive expression; results later called unreliable and irreproducible
Protocol: FLIPR assay: Changes in membrane potential can be assayed using the FLIPR TETRA Assay (Molecular Devices). In this method cells are loaded with a fluorescent dye, which emits light of a different wavelength dependent on the membrane potential. This can be recorded in suitable cell culturing plates and monitored over time in the presence/absence of a test substance.
10.000 to 30.000 cells were seeded in a 384 well plate (black, lysine coated with transparent bottom, Becton Dickinson) and were incubated over night at 37° C. and 5% CO2. The next day they were washed twice with 50 μl assay buffer (140 mM NaCl; 1.26 mM CaCl2; 0.49 mM MgCl2*6 H2O; 0.41 mM MgSO4*7 H2O; 5.33 mM KCl; 0.44 mM KH2PO4−pH =7.4). […]
After starting the measurement ten sample points were assayed at intervals of 3 seconds. Thereafter […] of the dissolved test substances (e.g. monosaccharide and/or KCl) were added and 30 measurements were recorded in 3-second intervals, thereafter 16 measurements were recorded in 15-second intervals. […]
Cells showing strong expression by PCR were subcloned and propagated. […] According to the fluorescence signal induced by KCl a number of 30,000 cells/well was determined to provide the highest fluorescence signal. […] Thereafter cells were exposed to glucose, galactose, fructose, AMG or mannose in different concentrations and changes in fluorescence were recorded as described in Example 1. […]

SGLT5 [3] = target: T1, SGLT5; experiment: Uptake of C14-labeled galactose in HEK/293 cells constitutively expressing SGLT5 (Reference Example); details: galactose 0.1 mM; constitutive expression; called unreliable
Protocol: [^14C]-saccharide uptake experiments: 30000 cells per well were seeded in white poly-D-lysine-coated 96-well plates and incubated over night. The expression of hSGLT5 was induced 24 h before the start of uptake experiments by the addition of 1 μg/ml tetracycline to the cells. For the assay, cells were washed twice with 250 μl pre-treatment buffer [140 mM cholinchloride in basal buffer (10 mM HEPES; 5.4 mM KCl; 2.8 mM CaCl2*2 H2O; 1.2 mM MgSO4*7 H2O; 0.1% BSA, pH 7.4) and incubated in 200 μl pre-treatment buffer for 25 min at 37° C. […] The lysate was mixed with 200 μl MikroScint 40 Scintillator, shaken for 15 min and counted for radioactivity in the TopCount NXT (Canberra Packard, Schwadorf, Austria). Specific sugar uptake was determined by subtracting non-specific uptake of each sugar (in the presence of choline chloride) from total uptake of the same sugar (in the presence of sodium chloride). […]

SGLT5 [4] = target: T1, SGLT5; experiment: Competitive assay to inhibit C14-labeled AMG uptake into transfected HEK cells (Reference Example); details: constitutive expression; called unreliable
Protocol: SGLT5 was cloned as described in Example 1. However, instead of using the inducible pT-Rex-Dest30 plasmid the sequence was inserted into the expression plasmid pcDNA3.1/V5-His for constitutive expression. Using lipofection HEK/293 cells (ATCC) were stably transfected. The expression plasmid contained resistance to geneticin as a selection marker. The cells were cultivated in DMEM with 10% FCS and […] geneticin for selecting transfected cells. Expression was tested by RT-PCR.
Furthermore, cells were tested for uptake of C^14-labeled galactose in an assay as described in Example 1. […] In addition, a competitive assay to inhibit C^14-labeled AMG uptake into the transfected HEK cells was performed.

SMILES: O=C[C@H](O)[C@@H](O)[C@@H](O)[C@H](O)CO [galactose]
- specific uptake / affinity for hSGLT5 (in words) (SGLT5 [1]): very low affinity
- signal for depolarisation (FLIPR, in words) (SGLT5 [2]): strongest signal for depolarisation
- uptake signal relative to the negative control (absolute cpm) (SGLT5 [3]): approximately 3 fold
- inhibitory effect on C14-labeled AMG uptake (in words) (SGLT5 [4]): highest inhibitory effect
